# Measurements reported in patent US20240002388A1, “PYRIMIDINONE COMPOUNDS AND USES THEREOF” (HUTCHISON MEDIPHARMA LIMITED, priority 2020, published 2024).
# pIC50: −log10 of the molar value.
# Tested on: L929 cell line (mouse fibroblastoma cell line)
# Test: L929 cell viability assay (mTNF-α + Z-VAD-FMK induced necroptosis)
# Type: cell-based
# Details: Mus musculus, L929, 20 h, L929 cells, mTNF-α 0.1 μg/mL + Z-VAD-FMK 5 μM, CellTiter-Glo
# Procedure: L929 cell line (mouse fibroblastoma cell line): purchased from ATCC (American Type Culture Collection) Cell Bank, cultured in 5% CO2, 37° C. incubator, and MEM medium which contains L-Glutamine, with 10% FBS was used. • MEM medium: GIBCO, Cat #11095080; • Fetal bovine serum (FBS): GIBCO, Cat #10099-141C; • Dimethyl sulfoxide (DMSO): Sigma, Cat #D2650; • 0.25% Trypsin-EDTA: GIBCO, Cat #25200072; • Recombinant Mouse TNF-alpha Protein (mTNF-α): R&D system, Cat #410-MT-050; • Pan-Caspase inhibitor (Z-VAD-FMK): Selleckchem, Cat #S7023; • CellTiter-Glo 2.0 Cell Viability Assay kit: Promega, Cat #G9242; • Microwell plate reader: Envision, Perkin Elmer; • 96-well plate: Corning, Cat #3917.
# The L929 cells at the logarithmic phase were taken out, and the supernatant was discarded. After trypsinization and cell shedding, 10% FBS-containing medium was added for neutralization, and the supernatant was discarded after centrifugation. The cells were re-suspended using 10% FBS-containing medium, adjusted to 7×10^4 cells/ml, added to 96-well microplate at 70 μL/well, i.e., 4.9×10^3 cells/well. Then the plate was incubated in a 5% CO2, 37° C. cell incubator overnight.
# After incubating overnight, the 96-well plate was taken out, the medium was discarded, and the plate was washed with 1% FBS-containing MEM medium. Then 1% FBS-containing MEM medium was added at 70 μL/well, and the plate was cultured in a 5% CO2, 37° C. cell incubator. After incubating for 1 hour, the test compound was diluted to the corresponding concentrations using DMSO with 3-fold serial dilution, then the corresponding concentration of DMSO diluted solution was diluted into 1% FBS-containing MEM medium, and 10 μL/well of the diluted test compound with different concentrations (final concentrations of test compound were 10, 3.33, 1.11, 0.37, 0.12, 0.04, 0.014 and 0.005 μM, while final concentration of DMSO was 0.3%) or 10 μL/well control solution (3% DMSO) were added to the cell culture system respectively, with the total volume being 80 μL/well. Then 10 μL of Z-VAD-FMK solution diluted with 1% FBS-containing MEM medium (final concentration of 5 μM) or 10 μL of control solution (2.5% DMSO) was added to each well, with the total volume being 90 μL/well. The plate was incubated in a 5% CO2, 37° C. cell culture incubator for 1 hour.
# After incubating for 1 hour, 10 μL of recombinant mouse TNF-α protein solution diluted with 1% FBS-containing MEM medium (final concentration of 0.1 μg/mL) or 10 μL control solution (1% FBS-containing MEM medium) was added to each well. The plate was incubated in a 5% CO2, 37° C. cell culture incubator for 20 hours.
# The cell culture plate was taken out from the incubator, and left to stand at room temperature for 30 minutes. Meanwhile, CellTiter-Glo viability assay kit was put from freezer to room temperature, and 50 μL of CellTiter-Glo reagent was added to all wells, the plate was shaken for 1 minutes, protected from light at room temperature for 10 minutes then read the plate on Envision to get the luminescence signal.
# The 96-well plate in the dark was taken out, and the chemiluminescence was determined using the Envision microwell plate reader as the signal value of each well.
# The mean signal value of the wells of the mixed solution of recombinant mouse TNF-alpha protein (final concentration of 0.1 μg/mL) and Pan-Caspase inhibitor (final concentration of 5 μM) was used as the lower value, and the mean signal value of the wells without stimulation was used as the upper value. According to the signal value of each well, the inhibition rate of each concentration of every compound was calculated, and the IC50 value of compound was obtained by Model 205 in XL-Fit 5.3 software (ID Business Solutions Limited).
# Inhibition rate %=[(Luminescence readout of treated compound−Luminescence readout of positive control)/(Luminescence readout of negative control−Luminescence readout of positive control)]×100%, wherein
row,SMILES,pIC50
1,CC(C)n1ncc2cnc(C(=O)NC3(c4ccc(-c5cncn(C6COC6)c5=O)cc4)CC3)nc21 [Compound 41],5.71
2,CC(C)n1ncc2cnc(C(=O)NC3(c4ccc(-c5cncn(C6CCC6)c5=O)cc4)CC3)nc21 [Compound 42],6.92
3,CC[C@H](C)n1cncc(-c2ccc(C3(NC(=O)c4ncc5cnn(C(C)C)c5n4)CC3)cc2)c1=O [Compound 43],7.80
4,CC[C@@H](C)n1cncc(-c2ccc(C3(NC(=O)c4ncc5cnn(C(C)C)c5n4)CC3)cc2)c1=O [Compound 44],7.55
5,CC(C)Cn1cncc(-c2ccc(C3(NC(=O)c4ncc5cnn(C(C)C)c5n4)CC3)cc2)c1=O [Compound 45],7.24
6,"Cn1cncc(-c2ccc(C3(NC(=O)c4nc5n(n4)[C@@H](c4ccccc4)CC5)CC3)cc2)c1=O [Compound 54, (R)—N-(1-(4-(1-methyl-6-oxo-1,6-dihydropyrimidin-5-yl)phenyl)cyclopropyl)-5-phenyl-6,7-dihydro-5H-pyrrolo[1,2-b][1,2,4]triazole-2-carboxamide]",6.24
7,"C[C@H](c1ccccc1)n1cnc(C(=O)NC2(c3ccc(-c4cncn(C)c4=O)cc3)CC2)n1 [Compound 55, (R)—N-(1-(4-(1-methyl-6-oxo-1,6-dihydropyrimidin-5-yl)phenyl)cyclopropyl)-1-(1-phenylethyl)-1H-1,2,4-triazole-3-carboxamide]",6.59
8,CC(C)n1cncc(-c2ccc(C3(NC(=O)c4ncc5cnn(C6COC6)c5n4)CC3)cc2)c1=O [Compound 60],5.04
9,CC(C)n1cncc(-c2ccc(C3(NC(=O)c4ncc5cnn(CC6CC6)c5n4)CC3)cc2)c1=O [Compound 61],7.32
10,CC(C)n1cncc(-c2ccc(C3(NC(=O)c4ncc5cnn(CC6CCC6)c5n4)CC3)cc2)c1=O [Compound 62],7.57
11,CC(C)n1cncc(-c2ccc(C3(NC(=O)c4ncc5cnn(-c6ccccn6)c5n4)CC3)cc2)c1=O [Compound 63],5.03
12,O=C(NC1(c2ccc(-c3cncn(CC4CC4)c3=O)cc2)CC1)c1ncc2cnn(CC3CC3)c2n1 [Compound 64],7.10
13,CC(C)n1ncc2cnc(C(=O)NC3(c4ccc(-c5cncn(C6CC(F)(F)C6)c5=O)cc4)CC3)nc21 [Compound 65],6.06
14,CC(C)n1ncc2cnc(C(=O)NC3(c4ccc(-c5cncn(CC6CCC6)c5=O)cc4)CC3)nc21 [Compound 66],7.28
15,CC(C)n1ncc2cnc(C(=O)NC3(c4ccc(-c5cncn([C@H]6C[C@@H]6F)c5=O)cc4)CC3)nc21 [Compound 67],5.25
16,C[C@H](n1cncc(-c2ccc(C3(NC(=O)c4ncc5cnn(CC6CC6)c5n4)CC3)cc2)c1=O)C(F)(F)F [Compound 68],7.49
17,CC(C)n1ncc2cnc(C(=O)NC3(c4ccc(-c5cncn([C@@H]6C[C@@H]6F)c5=O)cc4)CC3)nc21 [Compound 69],7.01
18,C[C@@H](n1cncc(-c2ccc(C3(NC(=O)c4ncc5cnn(CC6CC6)c5n4)CC3)cc2)c1=O)C(F)(F)F [Compound 70],7.92
19,C[C@H](n1cncc(-c2ccc(C3(NC(=O)c4ncc5cnn(CC6CC6)c5n4)CC3)c(F)c2)c1=O)C(F)(F)F [Compound 71],7.70
20,CC(C)n1cncc(-c2ccc(C3(NC(=O)c4ncc5cnn(CC6CC6)c5n4)CC3)c(F)c2)c1=O [Compound 72],7.80
21,CC(C)n1cncc(-c2ccc(C3(NC(=O)c4ncc5cnn(CC6CC6)c5n4)CC3)cc2F)c1=O [Compound 73],7.39
22,CC(C)n1ncc2cnc(C(=O)NC3(c4ccc(-c5cncn(CC6CC6)c5=O)cc4F)CC3)nc21 [Compound 74],7.52
23,CC(C)n1ncc2cnc(C(=O)NC3(c4ccc(-c5cncn(CC6CC6)c5=O)c(F)c4)CC3)nc21 [Compound 75],7.39
24,C[C@@H](n1cncc(-c2ccc(C3(NC(=O)c4ncc5cnn(CC6CC6)c5n4)CC3)c(F)c2)c1=O)C(F)(F)F [Compound 76],7.49
25,CC(C)n1ncc2cnc(C(=O)NC3(c4ccc(-c5cncn(C6CCOCC6)c5=O)cc4)CC3)nc21 [Compound 77],6.82
